Data from patent US11649431B2, “Cortical interneurons and other neuronal cells produced by the directed differentiation of pluripotent and multipotent cells” (MEMORIAL SLOAN-KETTERING CANCER CENTER, priority 2013, dated 2023).

Experiments:
[1] = tested on: human ESC (WA-09, HES-3) and iPS cells (C72, SeV6); assay: FOXG1 / PAX6 induction during neural differentiation of hPSCs (immunofluorescence quantification); assay type: cell-based; conditions: for PAX6 expression after addition of Wnt antagonist to dual SMAD inhibition protocol: HES-3 (NKX2.1::GFP) line, FIG. 1C; for FOXG1 expression in LSB-treated cultures: Wnt antagonist added to LSB dual SMAD inhibition, XAV939 2 μM, DKK1 250 ng/ml
Source text: Human ESC (lines WA-09, HES-3 (NKX2.1::GFP) and iPS cells (C72, SeV6) were maintained on mouse embryonic fibroblasts (MEFs) as described previously and dissociated with Accutase (Innovative Cell Technologies) for differentiation or dispase for passaging (Chambers et al., Nat Biotechnol 27:275-280 (2009)). Media used for differentiation included KSR-medium, N2 medium (DMEM/F12 with NaHCO3, N2B supplement (Stem Cell Technologies), and Neurobasal media with B27 (Gibco) and N2 supplements (Invitrogen) as described previously. Kriks et al., Nature 480:547-551 (2011). The small molecules compounds used included: XAV939 (2 μM; Stemgent), LDN193189 (100 nM; Stemgent), SB431542 (10 μM; Tocris), and Purmorphamine (1-2 μM; Calbiochem), ascorbic acid (200 μM) and dibutyryl-cyclic AMP (dbcAMP, 200 μM; both from Sigma). Recombinant growth factors: SHH (C25II; 50-500 ng/ml), Noggin (125 ng/ml), DKK1 (250 ng/ml), and BDNF (10 ng/ml) were purchased from R&D Systems or for FGF2 (10 ng/ml) from Promega and used at the concentrations indicated in the manuscript.
Cultures were fixed in 4% paraformaldehyde in phospate-buffered saline and processed for immunofluorescent staining and confocal microscopy. Secondary antibodies used for primary antibody detection were species-specific Alexa-dye conjugates (Invitrogen). For primary antibodies, we used antibodies to rabbit FOXG1 (gift from Eseng Lai); mouse PAX6 (DSHB); mouse NKX2.1 (Labvision); goat NKX2.1 (C-20, Santa Cruz); rabbit OLIG2 (Chemicon); goat FOXA2 (Santa Cruz); rabbit LHX6 (Abeam); mouse RAX (Abnova); rabbit GAPDH (Thermo Scientific); goat DCX (Santa Cruz); mouse TUJ1 (Covance); rabbit GABA (Sigma); mouse Nestin (Thermo Scientific); rabbit KI67 (Labvision); mouse KI67 (Dako); rabbit Calbindin (Chemicon); mouse Calretinin (Swant); chick GFP (Abeam); goat Chat (Chemicon); rat somatostatin (Chemicon); mouse TH (Abeam); rabbit NOS (Swant); mouse Parvalbumin (Chemicon); mouse PSD-95 (Zymed); guinea-pig VGLUT1 (Synaptic systems); rabbit VGAT (Synaptic systems); and mouse Gephyrin (Synaptic Systems).
FOXG1 and PAX6 quantification: Using a 20× objective, 25 fields were imaged from 3 wells and from 4 independent differentiation studies. The number of DAPI+ nuclei was used as the denominator and either FOXG1+ nuclei or PAX6+ nuclei were used for the numerator. NKX2.1::GFP co-labeling: Using a 20× objective, 25-30 fields were imaged from 4 wells from 4 independent differentiations. The number of NKX2.1::GFP+ cells was used as the denominator and the numerator chosen for each analyzed marker. As a control for each marker, secondary antibody in the absence of primary antibody was used as a negative control to designate signal specificity.

[2] = tested on: colon carcinoma cell line DLD-1; conditions: catenin-dependent colon carcinoma cell line; cited from earlier work
SW480 cells = conditions: cited from earlier work
motor neurons (MNs) = conditions: trophic factors removed, 72 hr; cited from earlier work

**Q.** With `Oc1nc(-c2ccc(C(F)(F)F)cc2)nc2c1CSCC2` [XAV939, 3,5,7,8-Tetrahydro-2-[4-(trifluoromethyl)phenyl]-4H-thiopyrano[4,3-d]pyrimidin-4-one] as the molecule, how does the “effect on FOXG1 induction across independent hESC (HES-3, WA-09) and human iPSC lines (C72, SeV6)” value ([1]; FIG. 1E) read?
**A.** consistent

**Q.** And the “PAX6 expression after addition of Wnt antagonist to dual SMAD inhibition protocol” value [1]?
**A.** did not result in a loss

**Q.** What about the “FOXG1 expression in LSB-treated cultures” value [1] of the same molecule?
**A.** greatly enhanced

**Q.** What about the “proliferation of DLD-1 cells” value [2] of the same molecule?
**A.** inhibits proliferation

**Q.** What about the “degradation of β-catenin” value (SW480 cells) of the same molecule?
**A.** promotes the degradation

**Q.** And the “protein levels of the axin-GSK3β complex” value (SW480 cells)?
**A.** increases

**Q.** With `O=C1Cc2c([nH]c3ccc(Br)cc23)-c2ccccc2N1` [kenpaullone] as the molecule, how does the “healthy survival of MNs” value (motor neurons (MNs)) read?
**A.** impressive ability to prolong

B1: DKK1: recombinant DKK1 (Dickkopf protein 1), inhibitor of canonical Wnt signaling (protein, UniProt O94907 32-266, looked up)
Dickkopf-related protein 1: TLNSVLNSNAIKNLPPPLGGAAGHPGSAVSAAPGILYPGGNKYQTIDNYQPYPCAEDEECGTDEYCASPTRGGDAGVQICLACRKRRKRCMRHAMCCPGNYCKNGICVSSDQNHFRGEIEETITESFGNDHSTLDGYSRRTTLSSKMYHTKGQEGSVCLRSSDCASGLCCARHFWSKICKPVLKEGQVCTKHRRKGSHGLEIFQRCYCGEGLSCRIQKDHHQASNSSRLHTCQRH
**Q.** For B1, which “PAX6 expression after addition of Wnt antagonist to dual SMAD inhibition protocol” value [1] is on record?
**A.** did not result in a loss

**Q.** And the “FOXG1 expression in LSB-treated cultures” value [1]?
**A.** greatly enhanced
